Tests used:
TA100 = assay: Mutagenicity test (Ames test), preincubation with or without rat liver S9; assay type: cell-based, S. Typhimurium
Protocol: (§1) • a) Mutagenitätsprüfungen Die Versuchsverbindung, gelöst in 40 µl an Dimethylsulphoxid und 100 µl eines Übernacht-Kulturmediums wurde zu 500 µl eines S9-Gemisches gegeben das 100 µl Leber S9 von mit Aroclor behandelten männlichen BD VI Ratten, 50 µl 0,15 M KC1 - 5 mM Sørensen Puffer pH 7,4 , […] Sørensen Phosphat Puffer (pH 7,4), […] NADP^+, 2,5 µmol Glukose-6-phosphat und […] MgC12 enthält. Das Gemisch wurde bei 37°C 30 Minuten lang unter Schütteln vorinkubiert und dann mit 2 ml histidinarmem Weichagar für die Plattenbildung auf minimalem Glukoseagar kombiniert. Die Anzahl der Revertanten wurde nach 48-stündiger Inkubation bei 37°C gezählt.
(§2) Mutagenität von synthetischen zyklischen Dioxadiazocinen in S. Typhimurium Stämmen. • a) Die meisten Zahlen entsprechen Mittelwerten aus zwei Versuchsreihen, die je dreifach gemacht wurden. Die Anzahl der spontanen Revertanten pro Platte (in Gegenwart des Lösungsmittels) wurde abgezogen. • b) AS: die Versuche wurden in Gegenwart (+) oder in Abwesenheit (-) eines metabolischen Aktivierungssystems aus S9 Rattenleber durchgeführt. • c) Die Konzentration bei welcher die untersuchten Verbindungen in S9-Mischung ausfielen.

TA98 = assay: as above; assay type: cell-based, S. Typhimurium
Protocol: as §1, §2

S. Typhimurium Stämmen = assay: Mutagenicity test (Ames test), summary statements not tied to one strain; assay type: cell-based; conditions: for Mutagenität: S. Typhimurium strains, overall result in words
Protocol: as §1, §2

[1] = TA100, +AS (rat liver S9), 30 µg pro Platte, spontaneous revertants subtracted
[2] = TA100, +AS (rat liver S9), 100 µg pro Platte, spontaneous revertants subtracted (pp'-CH3O CO precipitated in S9 mix)
[3] = TA100, +AS (rat liver S9), 300 µg pro Platte, compounds precipitated in S9 mix, spontaneous revertants subtracted
[4] = TA100, -AS, 30 µg pro Platte, spontaneous revertants subtracted
[5] = TA100, -AS, 100 µg pro Platte, spontaneous revertants subtracted
[6] = TA100, -AS, 300 µg pro Platte, spontaneous revertants subtracted
[7] = TA98, +AS (rat liver S9), 30 µg pro Platte, spontaneous revertants subtracted
[8] = TA98, +AS (rat liver S9), 100 µg pro Platte, spontaneous revertants subtracted (pp'-CH3O CO precipitated in S9 mix)
[9] = TA98, +AS (rat liver S9), 300 µg pro Platte, compounds precipitated in S9 mix, spontaneous revertants subtracted
[10] = TA98, -AS, 30 µg pro Platte, spontaneous revertants subtracted
[11] = TA98, -AS, 100 µg pro Platte, spontaneous revertants subtracted
[12] = TA98, -AS, 300 µg pro Platte, spontaneous revertants subtracted

SMILES: FC(F)(F)c1ccc(N2COCN(c3ccc(C(F)(F)F)cc3)COC2)cc1 [pp'-CF3, para-Trifluormethyl-3,7-diphenyl-1,5,3,7-dioxadiazocin]
- Anzahl der Revertanten pro Platte (TA100; [1]): 44 Revertanten pro Platte
- Anzahl der Revertanten pro Platte (TA100; [2]): 86 Revertanten pro Platte
- Anzahl der Revertanten pro Platte (TA100; [3]): 98 Revertanten pro Platte
- Anzahl der Revertanten pro Platte (TA100; TA100, +AS (rat liver S9), 1000 µg pro Platte, compound precipitated in S9 mix, spontaneous revertants subtracted): 96 Revertanten pro Platte
- Anzahl der Revertanten pro Platte (TA100; [4]): 8 Revertanten pro Platte
- Anzahl der Revertanten pro Platte (TA100; [5]): 14 Revertanten pro Platte
- Anzahl der Revertanten pro Platte (TA100; [6]): 5 Revertanten pro Platte
- Anzahl der Revertanten pro Platte (TA100; TA100, -AS, 1000 µg pro Platte, spontaneous revertants subtracted): 1 Revertanten pro Platte
- Mutagenität (TA100; TA100, in presence of metabolic activation system, result in words): schwach mutagen
- Anzahl der Revertanten pro Platte (TA98; [7]): 10 Revertanten pro Platte
- Anzahl der Revertanten pro Platte (TA98; [8]): 14 Revertanten pro Platte
- Anzahl der Revertanten pro Platte (TA98; [9]): 24 Revertanten pro Platte
- Anzahl der Revertanten pro Platte (TA98; TA98, +AS (rat liver S9), 1000 µg pro Platte, compound precipitated in S9 mix, spontaneous revertants subtracted): 12 Revertanten pro Platte
- Anzahl der Revertanten pro Platte (TA98; [10]): 0 Revertanten pro Platte
- Anzahl der Revertanten pro Platte (TA98; [11]): 0 Revertanten pro Platte
- Anzahl der Revertanten pro Platte (TA98; [12]): 2 Revertanten pro Platte
- Anzahl der Revertanten pro Platte (TA98; TA98, -AS, 1000 µg pro Platte, spontaneous revertants subtracted): 0 Revertanten pro Platte
- Mutagenität (S. Typhimurium Stämmen): mutagen

SMILES: O=[N+]([O-])c1ccc(N2COCN(c3ccc([N+](=O)[O-])cc3)COC2)cc1 [pp'-NO2]
- Anzahl der Revertanten pro Platte (TA100; TA100, +AS (rat liver S9), 10 µg pro Platte, spontaneous revertants subtracted): 22 Revertanten pro Platte
- Anzahl der Revertanten pro Platte (TA100; [1]): 78 Revertanten pro Platte
- Anzahl der Revertanten pro Platte (TA100; [2]): 195 Revertanten pro Platte
- Anzahl der Revertanten pro Platte (TA100; [3]): 357 Revertanten pro Platte
- Anzahl der Revertanten pro Platte (TA100; TA100, -AS, 10 µg pro Platte, spontaneous revertants subtracted): 13 Revertanten pro Platte
- Anzahl der Revertanten pro Platte (TA100; [4]): 31 Revertanten pro Platte
- Anzahl der Revertanten pro Platte (TA100; [5]): 100 Revertanten pro Platte
- Anzahl der Revertanten pro Platte (TA100; [6]): 206 Revertanten pro Platte
- Mutagenität (Vergleich der Verbindungen) (TA100; TA100, rank among the three tested compounds): aktivste Verbindung
- Mutagenität der reaktiven metabolischen Spezies (TA100; with metabolic activation, TA100 compared with TA98): nur in TA100 mutagen oder stärker mutagen
- Anzahl der Revertanten pro Platte (TA98; TA98, +AS (rat liver S9), 10 µg pro Platte, spontaneous revertants subtracted): 37 Revertanten pro Platte
- Anzahl der Revertanten pro Platte (TA98; [7]): 88 Revertanten pro Platte
- Anzahl der Revertanten pro Platte (TA98; [8]): 280 Revertanten pro Platte
- Anzahl der Revertanten pro Platte (TA98; [9]): 507 Revertanten pro Platte
- Anzahl der Revertanten pro Platte (TA98; TA98, -AS, 10 µg pro Platte, spontaneous revertants subtracted): 65 Revertanten pro Platte
- Anzahl der Revertanten pro Platte (TA98; [10]): 163 Revertanten pro Platte
- Anzahl der Revertanten pro Platte (TA98; [11]): 373 Revertanten pro Platte
- Anzahl der Revertanten pro Platte (TA98; [12]): 839 Revertanten pro Platte
- Mutagenität (Vergleich der Verbindungen) (TA98; TA98, rank among the three tested compounds): aktivste Verbindung
- direkte Mutagenität (TA98; without metabolic activation, TA98 compared with TA100): höher in TA98
- Mutagenität (S. Typhimurium Stämmen): mutagen
- direkte Mutagenität (S. Typhimurium Stämmen; without metabolic activation, result in words): direkt mutagen
